Earlier results as cited in PubChem BioAssay AID1259409 (Chemical Carcinogenesis Research Information System (CCRIS), 2018).

Tested on: rodent chemically induced tumor inhibition, incidence and multiplicity
Test: CCRIS tumor inhibitor studies

SMILES: COc1ccc2[nH]cc(CCNC(C)=O)c2c1
- tumour outcome (control, treated, inhibition, significance) (Carcinogen: 1,2-DIMETHYLHYDRAZINE [540-73-8], Dose [Inhibitor]: 20 UG/ML IN DRINKING WATER 14 HR/D AT NIGHT TIME FOR 6 MONTHS (STUDY DURATION: 6 MONTHS), Route [Inhibitor]: ORAL, Species: RAT, Strain/Sex: LIO/FEMALE, Target Tissue: Type of Lesion: ASCENDING COLON: TUMOR, Dose [Carcinogen]: 21 MG/KG BW 1X/WK FOR 15 WK (STUDY DURATION: 6 MONTHS), Promoter: NONE): 23/25 (92.0%), 15/23 (65.2%), 29%, p<0.01
- tumour outcome (control, treated, inhibition, significance) (Carcinogen: 1,2-DIMETHYLHYDRAZINE [540-73-8], Dose [Inhibitor]: 20 UG/ML IN DRINKING WATER 14 HR/D AT NIGHT TIME FOR 6 MONTHS (STUDY DURATION: 6 MONTHS), Route [Inhibitor]: ORAL, Species: RAT, Strain/Sex: LIO/FEMALE, Target Tissue: Type of Lesion: DESCENDING COLON: TUMOR, Dose [Carcinogen]: 21 MG/KG BW 1X/WK FOR 15 WK (STUDY DURATION: 6 MONTHS), Promoter: NONE): 25/25 (100.0%), 23/23 (100.0%), 0%, not significant
- tumour outcome (control, treated, inhibition, significance) (Carcinogen: 1,2-DIMETHYLHYDRAZINE [540-73-8], Dose [Inhibitor]: 20 UG/ML IN DRINKING WATER 14 HR/D AT NIGHT TIME FOR 6 MONTHS (STUDY DURATION: 6 MONTHS), Route [Inhibitor]: ORAL, Species: RAT, Strain/Sex: LIO/FEMALE, Target Tissue: Type of Lesion: DUODENUM: TUMOR, Dose [Carcinogen]: 21 MG/KG BW 1X/WK FOR 15 WK (STUDY DURATION: 6 MONTHS), Promoter: NONE): 8/25 (32.0%), 5/23 (21.7%), 32%, not significant
- tumour outcome (control, treated, inhibition, significance) (Carcinogen: 1,2-DIMETHYLHYDRAZINE [540-73-8], Dose [Inhibitor]: 20 UG/ML IN DRINKING WATER 14 HR/D AT NIGHT TIME FOR 6 MONTHS (STUDY DURATION: 6 MONTHS), Route [Inhibitor]: ORAL, Species: RAT, Strain/Sex: LIO/FEMALE, Target Tissue: Type of Lesion: JEJUNUM AND ILIUM: TUMOR, Dose [Carcinogen]: 21 MG/KG BW 1X/WK FOR 15 WK (STUDY DURATION: 6 MONTHS), Promoter: NONE): 4/25 (16.0%), 1/23 (4.3%), 73%, p<0.05
- tumour outcome (control, treated, inhibition, significance) (Carcinogen: 1,2-DIMETHYLHYDRAZINE [540-73-8], Dose [Inhibitor]: 20 UG/ML IN DRINKING WATER 14 HR/D AT NIGHT TIME FOR 6 MONTHS (STUDY DURATION: 6 MONTHS), Route [Inhibitor]: ORAL, Species: RAT, Strain/Sex: LIO/FEMALE, Target Tissue: Type of Lesion: RECTUM: TUMOR, Dose [Carcinogen]: 21 MG/KG BW 1X/WK FOR 15 WK (STUDY DURATION: 6 MONTHS), Promoter: NONE): 11/25 (44.0%), 11/23 (47.8%), -9%, not significant
- tumour outcome (control, treated, inhibition, significance) (Carcinogen: 7, 12-DIMETHYLBENZ(A)ANTHRACENE [57-97-6], Dose [Inhibitor]: 20 UG/ML IN DRINKING WATER, 17 HR/D BEGINNING 5 D BEFORE FIRST CARCINOGEN DOSE FOR 13 WK (STUDY DURATION: 13 WK), Route [Inhibitor]: ORAL, Species: RAT, Strain/Sex: SPRAGUE-DAWLEY/FEMALE, Target Tissue: Type of Lesion: MAMMARY GLAND: TUMOR, Dose [Carcinogen]: 10 MG THREE TIMES BETWEEN POSTNATAL DAYS 45-59): 23/24 (95.8%), 21/28 (75%), 21.5%, p<0.05
- tumour outcome (control, treated, inhibition, significance) (Carcinogen: 7,12-DIMETHYLBENZ[A]ANTHRACENE [57-97-6], Dose [Inhibitor]: 10 MG/KG BW DAILY BETWEEN 45 AND 59 D OF AGE, Route [Inhibitor]: INTRAGASTRIC (GAVAGE) IN HYDROXYETHYLCELLULOSE SOLUTION, Species: RAT, Strain/Sex: SPRAGUE-DAWLEY/FEMALE, Target Tissue: Type of Lesion: MAMMARY: ADENOCARCINOMA, Dose [Carcinogen]: 75 MG/KG BW IN SESAME OIL AT 60 D OF AGE (STUDY DURATION: 1 YR)): 75%, 43%, 43%, p=0.04 (at 6 mo)
- tumour outcome (control, treated, inhibition, significance) (Carcinogen: 7,12-DIMETHYLBENZ[A]ANTHRACENE [57-97-6], Dose [Inhibitor]: 10 MG/KG BW DAILY FOR 6 MO AFTER CARCINOGEN ADMINISTRATION, Route [Inhibitor]: INTRAGASTRIC (GAVAGE), Species: RAT, Strain/Sex: SPRAGUE-DAWLEY/FEMALE, Target Tissue: Type of Lesion: MAMMARY: ADENOCARCINOMA, Dose [Carcinogen]: 75 MG/KG BW AT 55 D OF AGE (STUDY DURATION: 1 YR)): 75%, 35%, 53%, p=0.01 (at 6 mo)
- tumour outcome (control, treated, inhibition, significance) (Carcinogen: 7,12-DIMETHYLBENZ[A]ANTHRACENE [57-97-6], Dose [Inhibitor]: 20 UG/ML IN DRINKING WATER 15 HR/D FOR 4 MONTHS BEGINNING AT THE TIME OF THE FIRST CARCINOGEN DOSE (STUDY DURATION: 6 MO, Route [Inhibitor]: ORAL, Species: MOUSE, Strain/Sex: CBA/FEMALE, Target Tissue: Type of Lesion: VAGINA AND CERVIX: TUMOR, Dose [Carcinogen]: 0.1% IN TRIETHYLENEGLYCOL IN A POLYURETHANE SPONGE 3 HR/D 2 D/WK FOR 2 MONTHS (STUDY DURATION: 6 MO), Promoter: NONE): 7/20 (35%), 3/20 (15%), 57%, not significant
- tumour outcome (control, treated, inhibition, significance) (Carcinogen: 7,12-DIMETHYLBENZ[A]ANTHRACENE, 57-97-6, Dose [Inhibitor]: 0, 20 UG/ML IN DRINKING WATER 17 HR/D 4 D/WK FOR 26 WK BEGINNING 45 D OF AGE (STUDY DURATION: 26 WK), Route [Inhibitor]: ORAL, Species: RAT, Strain/Sex: SD/FEMALE, Target Tissue: Type of Lesion: MAMMARY GLAND: TUMOR, Dose [Carcinogen]: 10 UG/ANIMAL IN CORN OIL INTRAGASTRICALLY ON 45, 50, 55 D OF AGE): 100%, 42%, 58%, p<0.001
- tumour outcome (control, treated, inhibition, significance) (Carcinogen: 7,12-DIMETHYLBENZ[A]ANTHRACENE, 57-97-6, Dose [Inhibitor]: 0, 20 UG/ML IN DRINKING WATER FOR 17 HR/D FOR THE DURATION OF STUDY (STUDY DURATION: 180 D), Route [Inhibitor]: ORAL, Species: RAT, Strain/Sex: SPRAGUE-DAWLEY/FEMALE, Target Tissue: Type of Lesion: MAMMARY GLAND: TUMOR, Dose [Carcinogen]: 20 MG/ANIMAL GAVAGE ONCE 10 D POST INHIBITOR TREATMENT (STUDY DURATION: 178 D), Promoter: NONE): 16/24 (66.6%), 15/25 (60.0%), 10%, not significant
- tumour outcome (control, treated, inhibition, significance) (Carcinogen: GAMMA RAYS: 7,12-DIMETHYLBENZ[A]ANTHRACENE [57-97-6], Dose [Inhibitor]: 0, 100 UG/ML IN DRINKING WATER FOR 28 WK (STUDY DURATION: 28 WK), Route [Inhibitor]: ORAL, Species: RAT, Strain/Sex: WISTAR: HAN/FEMALE, Target Tissue: Type of Lesion: MAMMARY GLAND: TUMOR, Dose [Carcinogen]: 96 MGY FORM CO-60 SOURCE FOR 2 WK (TOTAL ACCUMULATED DOSE 1.44 GY), THEN 3 DOSES OF 10 MG DMBA BY GAVAGE (STUDY DURATION, Promoter: NONE): 48.3%, 50.0%, -3.5%, not significant
